Values of other authors, collected in patent US9370632B2, “Nasal treatment delivery device for mixed carbon dioxide and saline” (CLOVER HILL HEALTHCARE, INC., priority 2012, dated 2016).

System: subjects with SAR, nasal allergen challenge (grass or ragweed allergen)

## O=C=O [CO(2), carbon dioxide]
20-second exposure to CO(2) 30 minutes before allergen challenge, compared with no treatment
  ipsilateral secretion weights: numerically reduced
20-second exposure to CO(2) 30 minutes before allergen challenge, compared with no treatment, 12 subjects with SAR, p=0.05
  sneezes: significant reduction
20-second exposure to CO(2) 30 minutes before allergen challenge, compared with no treatment, p=0.01
  bilateral runny nose symptoms: significant reduction
20-second exposure to CO(2) 30 minutes before allergen challenge, compared with no treatment, p=0.04
  contralateral secretion weights (reflex secretory response, primary outcome): significant reduction
After pretreatment with CO(2), increased significantly with sham treatment
  histamine levels in ipsilateral nasal secretions: did not increase
During 20-second intranasal exposure to CO(2)
  sensation reported by subjects during exposure: transient burning sensation
